Laboratory results published in patent publication US9561231B2 (AbbVie Inc., priority 2012, dated 2017).

Legend:
[1] = target: T1, first (BD1: amino acids K57-E168) bromodomain of BRD4 (Homo sapiens, UniProt O60885); assay: TR-FRET bromodomain binding assay, BRD4 BD1; conditions: TR-FRET assay protocol (A-G, compound concentration range); Ki calculated from IC50, probe Kd and probe concentration; read-out: TR-FRET Binding Ki: BRD4 (BDI_K57-E168)
T1 construct: His-tagged first (BD1: amino acids K57-E168)
Summary of the method: (§1)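 His-tagged BRD4 bromodomain competed against an Alexa647-labeled BET-inhibitor probe by TR-FRET in 20 mM sodium phosphate pH 6.0, 50 mM NaCl, 1 mM EDTA, 0.01% Triton X-100, 1 mM DTT.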

[2] = target: T2, second (BD2: amino acids E352-E168) bromodomain of BRD4 (Homo sapiens, UniProt O60885); assay: TR-FRET bromodomain binding assay, BRD4 BD2; conditions: TR-FRET assay protocol (A-G, compound concentration range); Ki calculated from IC50, probe Kd and probe concentration; read-out: TR-FRET Binding Ki: BRD4 (BDII_E352-M457)
T2 construct: protocol
Summary of the method: as §1

[3] = test system: breast cancer cell line MX-1; assay: MX-1 cell line proliferation assay (3-day); assay type: cell-based; conditions: Homo sapiens, MX1; MX-1 cells, 72 h incubation, Cell Titer Glo; read-out: Cellular proliferation: EC50
Summary of the method: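 EC50 derived by sigmoidal fitting of Cell Titer Glo signal relative to DMSO controls. Compound, 3 μM down to 0.0001 μM final in 3-fold steps, was added to adhered MX-1 cells (5000/well, RPMI + 10% FBS) for a 3-day incubation at 37° C.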

SMILES | Ki [1] [µM] | Ki [2] [µM] | EC50 [3] [µM]
CCNS(=O)(=O)c1ccc(Oc2ccccc2)c(-c2ccc(=O)n(C)c2)c1 [Example 255, N-ethyl-3-(1-methyl-6-oxo-1,6-dihydropyridin-3-yl)-4-phenoxybenzenesulfonamide] | 0.635 | 0.142 | > 3
Cn1cc(-c2cc(S(N)(=O)=O)ccc2Oc2ccccc2)ccc1=O [Example 256, 3-(1-methyl-6-oxo-1,6-dihydropyridin-3-yl)-4-phenoxybenzenesulfonamide] | 0.219 | 0.0936 | 1.06
COc1cc(=O)n(C)cc1-c1ccccc1Oc1ccccc1 [Example 258, 4-methoxy-1-methyl-5-(2-phenoxyphenyl)pyridin-2(1H)-one] | 0.73 | 0.382 | 1.51
COc1cc(=O)n(C)cc1-c1cc(NS(C)(=O)=O)ccc1Oc1ccccc1 [Example 259, N-[3-(4-methoxy-1-methyl-6-oxo-1,6-dihydropyridin-3-yl)-4-phenoxyphenyl]methanesulfonamide] | 0.0286 | 0.00941 | 0.13
Cc1cc(-c2ccccc2Oc2ccccc2)c[nH]c1=O [Example 260, 3-methyl-5-(2-phenoxyphenyl)pyridin-2(1H)-one] | 0.216 | 0.406 | 2.35
CC(=O)Nc1ccc(Oc2ccccc2)c(-c2c[nH]c(=O)c(C)c2)c1 [Example 262, N-[3-(5-methyl-6-oxo-1,6-dihydropyridin-3-yl)-4-phenoxyphenyl]acetamide] | 0.0779 | 0.29 | 0.783
Cc1cc(-c2cc(NS(C)(=O)=O)ccc2Oc2ccc(F)cc2F)c[nH]c1=O [Example 263, N-[4-(2,4-difluorophenoxy)-3-(5-methyl-6-oxo-1,6-dihydropyridin-3-yl)phenyl]methanesulfonamide] | 0.0488 | 0.121 | 0.304
CCS(=O)(=O)Nc1ccc(Oc2ccc(F)cc2F)c(-c2c[nH]c(=O)c(C)c2)c1 [Example 264, N-[4-(2,4-difluorophenoxy)-3-(5-methyl-6-oxo-1,6-dihydropyridin-3-yl)phenyl]ethanesulfonamide] | 0.0335 | 0.0553 | 0.176
CC(=O)Nc1ccc(Oc2ccc(F)cc2F)c(-c2c[nH]c(=O)c(C)c2)c1 [Example 265, N-[4-(2,4-difluorophenoxy)-3-(5-methyl-6-oxo-1,6-dihydropyridin-3-yl)phenyl]acetamide] | 0.132 | 0.172 | 1.72
Cc1cc(-c2cc(NS(C)(=O)=O)ccc2OC2CCC(F)(F)CC2)c[nH]c1=O [Example 266, N-{4-[(4,4-difluorocyclohexyl)oxy]-3-(5-methyl-6-oxo-1,6-dihydropyridin-3-yl)phenyl}methanesulfonamide] | 0.0583 | 0.341 | > 3
CCS(=O)(=O)Nc1ccc(OC2CCC(F)(F)CC2)c(-c2c[nH]c(=O)c(C)c2)c1 [Example 267, N-{4-[(4,4-difluorocyclohexyl)oxy]-3-(5-methyl-6-oxo-1,6-dihydropyridin-3-yl)phenyl}ethanesulfonamide] | 0.0478 | 0.101 | > 3
CCS(=O)(=O)Nc1ccc(Oc2ccc(F)cc2F)c(-c2cn(C)c(=O)cc2C(F)(F)F)c1 [Example 268, N-{4-(2,4-difluorophenoxy)-3-[1-methyl-6-oxo-4-(trifluoromethyl)-1,6-dihydropyridin-3-yl]phenyl}ethanesulfonamide] | 0.483 | 0.0951 | 0.579

Now from value to compound:

Ki [1] [µM] | Ki [2] [µM] | EC50 [3] [µM] | SMILES
0.0169 | 0.00462 | 0.167 | Cn1cc(-c2cc(NS(C)(=O)=O)ccc2Oc2ccc(F)cc2F)c(-c2ccc(CO)cc2)cc1=O [Example 272, N-[4-(2,4-difluorophenoxy)-3-{4-[4-(hydroxymethyl)phenyl]-1-methyl-6-oxo-1,6-dihydropyridin-3-yl]phenyl}methanesulfonamide]
0.00458 | 0.00245 | 0.107 | CN1CCN(Cc2ccc(-c3cc(=O)n(C)cc3-c3cc(NS(C)(=O)=O)ccc3Oc3ccc(F)cc3F)cc2)CC1 [Example 273, N-[4-(2,4-difluorophenoxy)-3-(1-methyl-4-{4-[(4-methylpiperazin-1-yl)methyl]phenyl}-6-oxo-1,6-dihydropyridin-3-yl)phenyl]methanesulfonamide]
0.0245 | 0.0055 | 0.0774 | Cn1cc(-c2cc(NS(C)(=O)=O)ccc2Oc2ccc(F)cc2F)c(-c2ccc(N3CCOCC3)cc2)cc1=O [Example 274, N-[4-(2,4-difluorophenoxy)-3-{1-methyl-4-[4-(morpholin-4-yl)phenyl]-6-oxo-1,6-dihydropyridin-3-yl]phenyl}methanesulfonamide]
0.0559 | 0.119 | 0.223 | CCS(=O)(=O)c1ccc(OCC2CC2)c(-c2cn(C)c(=O)cc2OC)c1 [Example 275, 5-[2-(cyclopropylmethoxy)-5-(ethylsulfonyl)phenyl]-4-methoxy-1-methylpyridin-2(1H)-one]
0.0107 | 0.00529 | 0.0481 | CCOc1cc(=O)n(C)cc1-c1cc(NS(C)(=O)=O)ccc1Oc1ccc(F)cc1F [Example 277, N-[4-(2,4-difluorophenoxy)-3-(4-ethoxy-1-methyl-6-oxo-1,6-dihydropyridin-3-yl)phenyl]methanesulfonamide]
0.00753 | 0.00139 | 0.0634 | CCS(=O)(=O)Nc1ccc(Oc2ccc(F)cc2F)c(-c2cn(C)c(=O)cc2-c2ccc(CO)cc2)c1 [Example 278, N-[4-(2,4-difluorophenoxy)-3-{4-[4-(hydroxymethyl)phenyl]-1-methyl-6-oxo-1,6-dihydropyridin-3-yl]phenyl}ethanesulfonamide]
0.00273 | 0.0013 | 0.0454 | CCS(=O)(=O)Nc1ccc(Oc2ccc(F)cc2F)c(-c2cn(C)c(=O)cc2-c2ccc(CN3CCN(C)CC3)cc2)c1 [Example 279, N-[4-(2,4-difluorophenoxy)-3-(1-methyl-4-{4-[(4-methylpiperazin-1-yl)methyl]phenyl}-6-oxo-1,6-dihydropyridin-3-yl)phenyl]ethanesulfonamide]
0.0038 | 0.00173 | 0.0381 | CCS(=O)(=O)Nc1ccc(Oc2ccc(F)cc2F)c(-c2cn(C)c(=O)cc2-c2ccc(CN(C)C)cc2)c1 [Example 280, N-[4-(2,4-difluorophenoxy)-3-(4-{4-[(dimethylamino)methyl]phenyl}-1-methyl-6-oxo-1,6-dihydropyridin-3-yl)phenyl]ethanesulfonamide]
0.15 | 0.509 | 1.65 | Cn1cc(-c2ccccc2Oc2ccccc2)cc(Cl)c1=O [Example 281, 3-chloro-1-methyl-5-(2-phenoxyphenyl)pyridin-2(1H)-one]
0.0174 | 0.0394 | 0.194 | CCS(=O)(=O)Nc1ccc(Oc2ccc(F)cc2F)c(-c2cc(Cl)c(=O)n(C)c2)c1 [Example 283, N-[3-(5-chloro-1-methyl-6-oxo-1,6-dihydropyridin-3-yl)-4-(2,4-difluorophenoxy)phenyl]ethanesulfonamide]
0.00575 | 0.00184 | 0.0443 | CCS(=O)(=O)Nc1ccc(Oc2ccc(F)cc2F)c(-c2cn(C)c(=O)cc2-c2ccc(N3CCOCC3)cc2)c1 [Example 284, N-[4-(2,4-difluorophenoxy)-3-{1-methyl-4-[4-(morpholin-4-yl)phenyl]-6-oxo-1,6-dihydropyridin-3-yl]phenyl}ethanesulfonamide]
0.0826 | 0.0759 | > 3 | CCS(=O)(=O)Nc1ccc(Oc2ccc(F)cc2F)c(-c2cn(C)c(=O)cc2OCCN2CCOCC2)c1 [Example 286, N-[4-(2,4-difluorophenoxy)-3-{1-methyl-4-[2-(morpholin-4-yl)ethoxy]-6-oxo-1,6-dihydropyridin-3-yl]phenyl}ethanesulfonamide]
0.00662 | 0.00215 | 0.0596 | CCS(=O)(=O)Nc1ccc(Oc2ccc(F)cc2F)c(-c2cn(C)c(=O)cc2OCC2CC2)c1 [Example 287, N-(3-(4-(cyclopropylmethoxy)-1-methyl-6-oxo-1,6-dihydropyridin-3-yl)-4-(2,4-difluorophenoxy)phenyl)ethanesulfonamide]
0.00631 | 0.000639 | 0.077 | CCS(=O)(=O)Nc1ccc(Oc2ccc(F)cc2F)c(-c2cn(C)c(=O)cc2OC(C)C)c1 [Example 289, N-{4-(2,4-difluorophenoxy)-3-[1-methyl-6-oxo-4-(propan-2-yloxy)-1,6-dihydropyridin-3-yl]phenyl}ethanesulfonamide]
0.012 | 0.00322 | 0.138 | CCS(=O)(=O)Nc1ccc(Oc2ccc(F)cc2F)c(-c2cn(C)c(=O)cc2OCC(C)C)c1 [Example 290, N-{4-(2,4-difluorophenoxy)-3-[1-methyl-4-(2-methylpropoxy)-6-oxo-1,6-dihydropyridin-3-yl]phenyl}ethanesulfonamide]
